Assays:
smallflower flatsedge = test: Test B flood test smallflower flatsedge; assay type: in vivo, Cyperus difformis
How it was run: (§1)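 Each value is a visual injury score relative to controls, with 10 meaning complete control and 0 no effect. Evaluation took place twelve to sixteen days after the 2-leaf-stage plants were treated and kept in the greenhouse.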

duck salad = test: Test B flood test duck salad; assay type: in vivo, Heteranthera limosa
How it was run: as §1

rape = test: Test B pre/postemergence rape; assay type: in vivo, Brassica napus
How it was run: (§2)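 Test chemicals in a non-phytotoxic solvent mixture with surfactant were sprayed preemergence onto planted seeds and postemergence onto plants 2 to 18 cm tall (1- to 4-leaf stage). After twelve to sixteen days in a greenhouse, injury was visually rated against untreated controls from 0 (no effect) to 10 (complete control).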

soybean = test: Test B pre/postemergence soybean; assay type: in vivo, Glycine max
How it was run: as §2

sugar beet = test: Test B pre/postemergence sugar beet; assay type: in vivo, Beta vulgaris
How it was run: as §2

giant foxtail = test: Test B pre/postemergence giant foxtail; assay type: in vivo, Setaria faberii
How it was run: as §2

purple nutsedge = test: Test B pre/postemergence purple nutsedge; assay type: in vivo, Cyperus rotundus
How it was run: as §2

blackgrass = test: Test B pre/postemergence blackgrass; assay type: in vivo, Alopecurus myosuroides
How it was run: as §2

velvetleaf = test: Test B pre/postemergence velvetleaf; assay type: in vivo, Abutilon theophrasti
How it was run: as §2

wheat = test: Test B pre/postemergence wheat; assay type: in vivo, Triticum aestivum
How it was run: as §2

corn = test: Test B pre/postemergence corn; assay type: in vivo, Zea mays
How it was run: as §2

crabgrass = test: Test B pre/postemergence crabgrass; assay type: in vivo, Digitaria sanguinalis
How it was run: as §2

morningglory = test: Test B pre/postemergence morningglory; assay type: in vivo, Ipomoea hederacea
How it was run: as §2

rice = test: Test B flood test rice; assay type: in vivo, Oryza sativa
How it was run: as §1

cocklebur = test: Test B pre/postemergence cocklebur; assay type: in vivo, Xanthium strumarium
How it was run: as §2

pigweed = test: Test B pre/postemergence pigweed; assay type: in vivo, Amaranthus retroflexus
How it was run: as §2

[1] = Rate 62 g/ha, headed Pre-emergence (flood test species), scale 0 to 10 (0 no effect, 10 complete control)
[2] = Rate 125 g/ha, Pre-emergence, flood test species, scale 0 to 10 where 0 is no effect and 10 is complete control
[3] = Rate 250 g/ha, Pre-emergence, flood-test species, scale 0 to 10, 0 is no effect, 10 is complete control
[4] = Rate 500 g/ha, Pre-emergence, flood test species, scale 0 to 10 (0 no effect, 10 complete control)
[5] = Postemergence, Rate 125 g/ha, scale 0 to 10, 0 is no effect, 10 is complete control
[6] = Preemergence, Rate 62 g/ha, scale of 0 to 10 where 0 is no effect and 10 is complete control
[7] = Preemergence, Rate 250 g/ha, scale of 0 to 10 where 0 is no effect and 10 is complete control
[8] = Preemergence, Rate 500 g/ha, scale of 0 to 10 where 0 is no effect and 10 is complete control
[9] = Rate 62 g/ha, Postemergence, scale 0 to 10 (0 no effect, 10 complete control)
[10] = Rate 500 g/ha, Postemergence, scale 0 to 10, 0 no effect, 10 complete control

Cc1ccccc1-n1c(=O)on(C(=O)N(c2ccc(Cl)cc2)C(C)C2CC2)c1=O (stereo not shown) [Compound 330]
S. Flatsedge plant response rating (smallflower flatsedge; [1]): 0 | S. Flatsedge plant response rating (smallflower flatsedge; [2]): 0 | S. Flatsedge plant response rating (smallflower flatsedge; [3]): 0 | S. Flatsedge plant response rating (smallflower flatsedge; [4]): 0 | Ducksalad plant response rating (duck salad; [1]): 0 | Ducksalad plant response rating (duck salad; [2]): 0 | Ducksalad plant response rating (duck salad; [3]): 0 | Ducksalad plant response rating (duck salad; [4]): 0 | Plant response rating, Rape (rape; [5]): 0 | Rape plant response rating (rape; [6]): 0 | Rape plant response rating (0 to 10 scale) (rape; Preemergence, Rate 125 g/ha): 0 | Rape plant response rating (rape; [7]): 0 | Rape plant response rating (rape; [8]): 0 | Rape plant response rating (rape; [9]): 0 | Plant response rating, Rape (rape; [10]): 0 | Plant response rating, Soybean (soybean; [5]): 1 | Soybean plant response rating (soybean; [6]): 0 | Soybean plant response rating (0 to 10 scale) (soybean; Preemergence, Rate 125 g/ha): 0 | Soybean plant response rating (soybean; [7]): 0 | Soybean plant response rating (soybean; [8]): 0 | Soybean plant response rating (soybean; [9]): 1 | Plant response rating, Soybean (soybean; [10]): 1 | Plant response rating, Sugarbeets (sugar beet; [5]): 0 | Sugarbeets plant response rating (sugar beet; [6]): 0 | Sugarbeets plant response rating (0 to 10 scale) (sugar beet; Preemergence, Rate 125 g/ha): 0 | Sugarbeets plant response rating (sugar beet; [7]): 0 | Sugarbeets plant response rating (sugar beet; [8]): 0 | Sugarbeets plant response rating (sugar beet; [9]): 0 | Plant response rating, Sugarbeets (sugar beet; [10]): 0 | Plant response rating, Giant foxtail (giant foxtail; [5]): 0 | Giant foxtail plant response rating (giant foxtail; [6]): 0 | Giant foxtail plant response rating (0 to 10 scale) (giant foxtail; Preemergence, Rate 125 g/ha): 0 | Giant foxtail plant response rating (giant foxtail; [7]): 0 | Giant foxtail plant response rating (giant foxtail; [8]): 0 | Giant foxtail plant response rating (giant foxtail; [9]): 0 | Plant response rating, Giant foxtail (giant foxtail; [10]): 0 | Plant response rating, Nutsedge (purple nutsedge; [5]): 0 | Nutsedge plant response rating (purple nutsedge; [6]): 0 | Nutsedge plant response rating (0 to 10 scale) (purple nutsedge; Preemergence, Rate 125 g/ha): 0 | Nutsedge plant response rating (purple nutsedge; [7]): 0 | Nutsedge plant response rating (purple nutsedge; [8]): 0 | Nutsedge plant response rating (purple nutsedge; [9]): 0 | Plant response rating, Nutsedge (purple nutsedge; [10]): 0 | Plant response rating, Blackgrass (blackgrass; [5]): 0 | Blackgrass plant response rating (blackgrass; [6]): 0 | Blackgrass plant response rating (0 to 10 scale) (blackgrass; Preemergence, Rate 125 g/ha): 0 | Blackgrass plant response rating (blackgrass; [7]): 0 | Blackgrass plant response rating (blackgrass; [9]): 0 | Plant response rating, Blackgrass (blackgrass; Rate 250 g/ha, Postemergence, scale of 0 to 10 where 0 is no effect and 10 is complete control): 0 | Plant response rating, Blackgrass (blackgrass; [10]): 0 | Plant response rating, Velvetleaf (velvetleaf; [5]): 0 | Velvetleaf plant response rating (velvetleaf; [6]): 0 | Velvetleaf plant response rating (0 to 10 scale) (velvetleaf; Preemergence, Rate 125 g/ha): 0 | Velvetleaf plant response rating (velvetleaf; [7]): 0 | Velvetleaf plant response rating (velvetleaf; [8]): 0 | Velvetleaf plant response rating (velvetleaf; [9]): 0 | Plant response rating, Velvetleaf (velvetleaf; [10]): 0 | Plant response rating, Wheat (wheat; [5]): 0 | Wheat plant response rating (wheat; [6]): 0 | Wheat plant response rating (0 to 10 scale) (wheat; Preemergence, Rate 125 g/ha): 0 | Wheat plant response rating (wheat; [7]): 0 | Wheat plant response rating (wheat; [8]): 0 | Wheat plant response rating (wheat; [9]): 0 | Plant response rating, Wheat (wheat; [10]): 0 | Plant response rating, Corn (corn; [5]): 0 | Corn plant response rating (corn; [6]): 0 | Corn plant response rating (0 to 10 scale) (corn; Preemergence, Rate 125 g/ha): 0 | Corn plant response rating (corn; [7]): 0 | Corn plant response rating (corn; [8]): 0 | Corn plant response rating (corn; [9]): 0 | Plant response rating, Corn (corn; [10]): 0 | Plant response rating, Crabgrass (crabgrass; [5]): 0 | Crabgrass plant response rating (crabgrass; [6]): 0 | Crabgrass plant response rating (0 to 10 scale) (crabgrass; Preemergence, Rate 125 g/ha): 0 | Crabgrass plant response rating (crabgrass; [7]): 0 | Crabgrass plant response rating (crabgrass; [8]): 0 | Crabgrass plant response rating (crabgrass; [9]): 0 | Plant response rating, Crabgrass (crabgrass; [10]): 0 | Plant response rating, Morningglory (morningglory; [5]): 0 | Morningglory plant response rating (morningglory; [6]): 0 | Morningglory plant response rating (0 to 10 scale) (morningglory; Preemergence, Rate 125 g/ha): 0 | Morningglory plant response rating (morningglory; [7]): 0 | Morningglory plant response rating (morningglory; [8]): 0 | Morningglory plant response rating (morningglory; [9]): 0 | Plant response rating, Morningglory (morningglory; [10]): 4 | Rice plant response rating (rice; [1]): 0 | Rice plant response rating (rice; [2]): 0 | Rice plant response rating (rice; [3]): 0 | Rice plant response rating (rice; [4]): 0 | Plant response rating, Cocklebur (cocklebur; [5]): 0 | Cocklebur plant response rating (cocklebur; [6]): 0 | Cocklebur plant response rating (0 to 10 scale) (cocklebur; Preemergence, Rate 125 g/ha): 0 | Cocklebur plant response rating (cocklebur; [7]): 0 | Cocklebur plant response rating (cocklebur; [8]): 0 | Cocklebur plant response rating (cocklebur; [9]): 0 | Plant response rating, Cocklebur (cocklebur; [10]): 0 | Plant response rating, Redroot pigweed (pigweed; [5]): 0 | Redroot pigweed plant response rating (pigweed; [6]): 0 | Redroot pigweed plant response rating (0 to 10 scale) (pigweed; Preemergence, Rate 125 g/ha): 0 | Redroot pigweed plant response rating (pigweed; [7]): 0 | Redroot pigweed plant response rating (pigweed; [8]): 0 | Redroot pigweed plant response rating (pigweed; [9]): 0 | Plant response rating, Redroot pigweed (pigweed; [10]): 0
